pIC50: −log10 of the molar value.
Legend:
Genome polyprotein [1] = target: T1, Genome polyprotein (dengue virus type 2, UniProt P29990); format: functional, Thailand/16681/1984
Genome polyprotein [2] = target: T1, Genome polyprotein; format: functional, Thailand/16681/1984; remark: listed apart in the source

T1 sequence (P29990 1346-1475 limits assumed): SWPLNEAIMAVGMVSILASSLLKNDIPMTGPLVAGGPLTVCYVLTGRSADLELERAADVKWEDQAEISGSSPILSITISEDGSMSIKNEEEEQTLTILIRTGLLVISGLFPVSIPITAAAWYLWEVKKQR
T1 sequence (P29990 1476-2093 limits assumed): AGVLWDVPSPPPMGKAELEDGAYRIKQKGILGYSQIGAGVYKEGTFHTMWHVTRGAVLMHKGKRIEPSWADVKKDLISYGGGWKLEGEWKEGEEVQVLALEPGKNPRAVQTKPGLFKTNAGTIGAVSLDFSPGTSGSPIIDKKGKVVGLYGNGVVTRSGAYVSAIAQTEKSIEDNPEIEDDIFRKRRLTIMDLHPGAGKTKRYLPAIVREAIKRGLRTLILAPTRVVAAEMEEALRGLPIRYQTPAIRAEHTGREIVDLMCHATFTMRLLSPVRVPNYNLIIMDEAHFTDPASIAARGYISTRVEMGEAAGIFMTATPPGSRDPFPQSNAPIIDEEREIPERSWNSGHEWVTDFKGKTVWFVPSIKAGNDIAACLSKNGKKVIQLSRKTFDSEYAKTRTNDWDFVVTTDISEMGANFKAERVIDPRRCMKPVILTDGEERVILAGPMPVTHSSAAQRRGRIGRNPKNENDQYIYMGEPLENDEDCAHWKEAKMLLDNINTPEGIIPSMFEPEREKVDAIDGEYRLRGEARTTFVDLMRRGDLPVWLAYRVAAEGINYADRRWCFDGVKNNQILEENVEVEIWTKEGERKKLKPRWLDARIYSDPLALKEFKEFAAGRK

Compound | pIC50 (Genome polyprotein [1]) | pIC50 (Genome polyprotein [2])
CC(C)c1ncc(OC2CCC2)c(C(=O)Nc2cccc(CN)c2)n1 | < 4.00 | < 4.00
Cn1ccc(COc2ccc([C@@H](NC(=O)OCc3ccccc3)C(=O)Nc3cccc(CN)c3)cc2)n1 | < 4.00 | < 4.00
NCc1cccc(NC(=O)[C@@H](NC(=O)OCc2ccccc2)C2CCN(Cc3cn[nH]c3)CC2)c1 | < 4.00 | < 4.00
Cn1nc2c(c1NC(=O)c1cc(Cl)cc(NC(=O)OCc3ccccc3)c1)CCNC2 | < 4.00 | < 4.00
NCc1cccc(NC(=O)c2ccc(F)c(NC(=O)OCc3ccccc3)c2F)c1 | < 4.00 | < 4.00
N#Cc1cc(Cl)cc(C(=O)Nc2cccc(CN)c2)c1 | < 4.00 | < 4.00
NCc1cccc(NC(=O)[C@@H](NC(=O)OCc2ccccc2)C2CCN(C(=O)c3cscn3)CC2)c1 | < 4.00 | < 4.00
NCc1cccc(NC(=O)[C@@H](NC(=O)OCc2ccccc2)c2ccc(OCC3CCOCC3)cc2)c1 | 4.07 | < 4.00
NCc1ccncc1NS(=O)(=O)c1ccc(Oc2ccccc2Cl)cc1 | 4.43 | < 4.00
NCc1cccc(NC(=O)c2cc(Cl)ccc2Oc2cccc(Cl)c2)c1 | < 4.00 | < 4.00
NCC12CC(NC(=O)c3cc(Cl)cc(NC(=O)OCc4ccccc4)c3)(CCO1)C2 | < 4.00 | < 4.00
COc1c(Cl)cc(Cl)cc1C(=O)Nc1cccc(CN)c1 | < 4.00 | < 4.00
O=C(Cn1ccnc(N2CC[C@H](CO)C2)c1=O)NCc1ccsc1 | < 4.00 | < 4.00
NCc1cccc(NC(=O)c2cc(C3CC3)nc3c(Cl)cnn23)c1 | < 4.00 | < 4.00
O=C(Cn1ccnc(N2CC[C@H](CO)C2)c1=O)N[C@H]1CCOC1 | < 4.00 | < 4.00
CCCOc1ccc2[nH]cc(CN3CCC(c4cscn4)CC3)c2c1 | < 4.00 | < 4.00
NCc1cccc(NC(=O)c2cccn3cc(CN4CCCC4)nc23)c1 | < 4.00 | < 4.00
CC(C)Oc1cc(CN)ccc1NS(=O)(=O)c1ccc(Oc2ccccc2Cl)cc1 | < 4.00 | < 4.00
NCc1cccc(NC(=O)Cc2cccc(Oc3ccncc3Br)c2)c1 | < 4.00 | < 4.00
O=C(Nc1cc(Cl)cc(C(=O)Nc2ccnc(OC3CNC3)c2)c1)OCc1ccccc1 | < 4.00 | < 4.00

Compound | pIC50 (Genome polyprotein [1]) | pIC50 (Genome polyprotein [2])
NCc1cccc(/C=C/c2cc(Cl)cc(NC(=O)OCc3ccccc3)c2)c1 | < 4.00 | < 4.00
CN1CCC[C@H]1COc1ccc([C@@H](NC(=O)OCc2ccccc2)C(=O)Nc2cccc(CN)c2)cc1 | < 4.00 | < 4.00
C=CC[C@]1(NC(=O)c2cc(Cl)cc(NC(=O)OCc3ccccc3)c2)CCNC1 | < 4.00 | < 4.00
NCc1cccc(NS(=O)(=O)c2cc(Cl)cc(NC(=O)OCc3ccccc3)c2)c1 | < 4.00 | < 4.00
CCOC(=O)Nc1cc(Cl)cc(C(=O)Nc2cccc(CN)c2)c1 | < 4.00 | < 4.00
NCc1cccc(NC(=O)[C@@H](NC(=O)OCc2ccccc2)c2ccc(OCc3nc4c(s3)COCC4)cc2)c1 | < 4.00 | < 4.00
O=C(Nc1cc(Cl)cc(C(=O)NC[C@@]23CN[C@H](CCO2)C3)c1)OCc1ccccc1 | < 4.00 | < 4.00
NCCCc1ccc(F)c(NC(=O)c2cc(Cl)cc(NC(=O)OCc3ccccc3)c2)c1 | 4.56 | 4.04
COCCN(C)C(=O)Cn1ccnc(N2CC[C@@H](CO)C2)c1=O | < 4.00 | < 4.00
NCc1ccc(F)c(NC(=O)c2cc(Cl)cc(NC(=O)OCc3ccccc3)c2)c1 | < 4.00 | < 4.00
CC(C)OC(=O)Nc1cc(Cl)cc(C(=O)Nc2cccc(CN)c2)c1 | < 4.00 | < 4.00
NCc1cccc(NC(=O)c2cc(C3CC3)n3nccc3n2)c1 | < 4.00 | < 4.00
O=C(Nc1cc(Cl)cc(C(=O)NC[C@@H]2CNCCC2(F)F)c1)OCc1ccccc1 | < 4.00 | < 4.00
CC[C@H](C(=O)Nc1cccc(CN)c1)n1cc(Br)c(C(F)(F)F)n1 | < 4.00 | < 4.00
CC(C)(C)OC(=O)NCc1cc(Cl)cc(C(=O)O)c1 | < 4.00 | < 4.00
O=C1Nc2ccccc2[C@H]1N1CCC(c2nc3ccccc3s2)CC1 | < 4.00 | < 4.00
NC[C@H]1C[C@@H](CNC(=O)c2cc(Cl)cc(NC(=O)OCc3ccccc3)c2)CCO1 | < 4.00 | < 4.00
c1ccc(COc2ccc3c(CN4CCC(c5cscn5)CC4)c[nH]c3c2)cc1 | < 4.00 | < 4.00
CCc1[nH]c2ccccc2c1CN1CCC(c2cscn2)CC1 | < 4.00 | < 4.00
O=C(Nc1cc(Cl)cc(C(=O)NC[C@H]2CC3(CNC3)CO2)c1)OCc1ccccc1 | < 4.00 | < 4.00
